Literature values, collected in patent publication US20100093659A1, “POLYVALENT BIOCONJUGATES” (GLYKOS FINLAND OY, priority 2006, published 2010).

Tested on: Helicobacter pylori
Conditions: monomeric form

CC(=O)N[C@H]1[C@H]([C@H](O)[C@H](O)CO)O[C@@](O[C@H]2[C@@H](O)[C@@H](CO)O[C@@H](O[C@H]3[C@H](O)[C@@H](O)C(O)O[C@@H]3CO)[C@@H]2O)(C(=O)O)C[C@@H]1O (stereo partly shown) [3′-sialyllactose]
concentrations at which adhesion of Helicobacter pylori to gastrointestinal epithelial cells was inhibited: millimolar
